The subject of data set [1] is human epithelial HeLa cells. The experiment in a line: HeLa cytotoxicity assay (CellTiter-Glo). The format is cell-based. To be noted: pCC50. The method, then:
(§1) Compounds of the present invention were tested via high-throughput cellular assays utilizing detection of kynurenine via mass spectrometry and cytotoxicity as end-points. For the mass spectrometry and cytotoxicity assays, human epithelial HeLa cells (CCL-2; ATCC®, Manassas, Va.) were stimulated with human interferon-γ (IFN-γ) (Sigma-Aldrich Corporation, St. Louis, Mo.) to induce the expression of indoleamine 2, 3-dioxygenase (IDO1). Compounds with IDO1 inhibitory properties decreased the amount of kynurenine produced by the cells via the tryptophan catabolic pathway. Cellular toxicity due to the effect of compound treatment was measured using CellTiter-Glo® reagent (CTG) (Promega Corporation, Madison, Wis.), which is based on luminescent detection of ATP, an indicator of metabolically active cells.
(§2) In preparation for the assays, test compounds were serially diluted 3-fold in DMSO from a typical top concentration of 1 mM or 5 mM and plated at 0.5 μL in 384-well, polystyrene, clear bottom, tissue culture treated plates with lids (Greiner Bio-One, Kremsmünster, Austria) to generate 11-point dose response curves. Low control wells (0% kynurenine or 100% cytotoxicity) contained either 0.5 μL of DMSO in the presence of unstimulated (−IFN-γ) HeLa cells for the mass spectrometry assay or 0.5 μL of DMSO in the absence of cells for the cytotoxicity assay, and high control wells (100% kynurenine or 0% cytotoxicity) contained 0.5 μL of DMSO in the presence of stimulated (+IFN-γ) HeLa cells for both the mass spectrometry and cytotoxicity assays.
(§3) Frozen stocks of HeLa cells were washed and recovered in DMEM high glucose medium with HEPES (Thermo Fisher Scientific, Inc., Waltham, Mass.) supplemented with 10% v/v certified fetal bovine serum (FBS) (Thermo Fisher Scientific, Inc., Waltham, Mass.), and 1× penicillin-streptomycin antibiotic solution (Thermo Fisher Scientific, Inc., Waltham, Mass.). The cells were diluted to 100,000 cells/mL in the supplemented DMEM medium. 50 μL of either the cell suspension, for the mass spectrometry assay, or medium alone, for the cytotoxicity assay, were added to the low control wells, on the previously prepared 384-well compound plates, resulting in 5,000 cells/well or 0 cells/well respectively. IFN-γ was added to the remaining cell suspension at a final concentration of 10 nM, and 50 μL of the stimulated cells were added to all remaining wells on the 384-well compound plates. The plates, with lids, were then placed in a 37° C., 5% CO2 humidified incubator for 2 days.
(§4) Following incubation, the 384-well plates were removed from the incubator and allowed to equilibrate to room temperature for 30 minutes. For the cytotoxicity assay, CellTiter-Glo® was prepared according to the manufacturer's instructions, and 10 μL were added to each plate well. After a twenty minute incubation at room temperature, luminescence was read on an EnVision® Multilabel Reader (PerkinElmer Inc., Waltham, Mass.). For the mass spectrometry assay, 10 μL of supernatant from each well of the compound-treated plates were added to 40 μL of acetonitrile, containing 10 μM of an internal standard for normalization, in 384-well, polypropylene, V-bottom plates (Greiner Bio-One, Kremsmünster, Austria) to extract the organic analytes. Following centrifugation at 2000 rpm for 10 minutes, 10 μL from each well of the acetonitrile extraction plates were added to 90 μL of sterile, distilled H2O in 384-well, polypropylene, V-bottom plates for analysis of kynurenine and the internal standard on the RapidFire 300 (Agilent Technologies, Santa Clara, Calif.) and 4000 QTRAP MS (SCIEX, Framingham, Mass.). MS data were integrated using Agilent Technologies' RapidFire Integrator software, and data were normalized for analysis as a ratio of kynurenine to the internal standard. […]
Background: In ATP-based viability assays light output follows the ATP content of the culture.

The target in data set [2] is indoleamine 2, 3-dioxygenase (IDO1) (Homo sapiens, UniProt P14902). As to the kind of experiment: IDO1 HeLa RapidFire MS assay (kynurenine detection by mass spectrometry). The format is cell-based. The arrangement: to induce the expression of indoleamine 2, 3-dioxygenase (IDO1). The settings on record: HeLa cells, pIC50, read-out: IDO1_HELA_PXC50 (converted). The method, then:
IDO1 HeLa RapidFire MS Assay
as §1, §2, §3, §4

21 compounds from patent US10899754B2, “Modulators of indoleamine 2,3-dioxygenase” (GLAXOSMITHKLINE INTELLECTUAL PROPERTY DEVELOPMENT LIMITED, priority 2016, dated 2021) can be followed below.

Bounds are passed on as bounds.

Chain of indoleamine 2, 3-dioxygenase (IDO1) (P14902 whole entry): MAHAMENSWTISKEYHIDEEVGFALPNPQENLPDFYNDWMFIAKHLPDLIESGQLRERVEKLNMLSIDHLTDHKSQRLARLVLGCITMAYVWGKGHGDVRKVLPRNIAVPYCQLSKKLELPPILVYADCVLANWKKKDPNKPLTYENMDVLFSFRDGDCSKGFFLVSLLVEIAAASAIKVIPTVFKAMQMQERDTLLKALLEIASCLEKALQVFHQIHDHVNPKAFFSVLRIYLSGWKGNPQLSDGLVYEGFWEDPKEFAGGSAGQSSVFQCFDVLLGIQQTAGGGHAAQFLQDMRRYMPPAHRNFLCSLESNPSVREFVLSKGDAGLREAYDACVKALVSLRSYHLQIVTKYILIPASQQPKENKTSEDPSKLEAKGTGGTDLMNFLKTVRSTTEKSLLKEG

The compound `CC(C)CN(c1ccc([C@H](C)CC(=O)O)cc1NC1CCC(C)(C)CC1)C1CCCCC1` [example 182, (3R)-3-{4-[cyclohexyl(2-methylpropyl)amino]-3-[(4,4-dimethylcyclohexyl)ami-no]phenyl}butanoic acid] returned an HELA_IDO1_TOX_PXC50 in data set [1] of less than 5. In data set [2], the IC50 is 5010 nM.
`CC(C)CN(c1ccc(-c2ccncc2C(=O)O)cc1Nc1nc2ccccc2o1)C1CCCCC1` [example 281, 4-{3-[(1,3-benzoxazol-2-yl)amino]-4-[cyclohexyl(2-methylpropyl)amino]phenyl}pyridine-3-carboxylic acid]: the HELA_IDO1_TOX_PXC50 in data set [1] is on record as less than 5. Moreover, the IC50 in data set [2] was 100 nM.
In turn, `CC(C)CN(CC(C)C)c1ccc([C@@H]2C[C@@H]2C(=O)O)cc1Nc1nc(C(F)(F)F)ns1` (single isomer, unassigned) [example 206] gave an HELA_IDO1_TOX_PXC50 in data set [1] of less than 5. Besides, in data set [2], the IC50 is 31.6 nM.
`CC(C)CN(c1ccc(-c2ccccc2C(=O)O)cc1Nc1nc(C(=O)O)ns1)C1CCCCC1` [example 275, 5-({2′-carboxy-4-[cyclohexyl(2-methylpropyl)amino]-[1,1′-biphenyl]-3-yl}amino)-1,2,4-thiadiazole-3-carboxylic acid] displayed an HELA_IDO1_TOX_PXC50 in data set [1] of less than 5. The IC50 in data set [2] is 6310 nM.
Take `CC(C)CN(CC(C)C)c1ccc(C(C)CC(=O)O)cc1Nc1nnc(N)s1` (stereo not drawn) [example 208, 3-{3-[(5-amino-1,3,4-thiadiazol-2-yl)amino]-4-[bis(2-methylpropyl)amino]phenyl}butanoic acid]: the HELA_IDO1_TOX_PXC50 in data set [1] was less than 5. In addition, the IC50 in data set [2] was 1580 nM.
Consider `CC(C)CN(c1ccc(C(C)CC(=O)O)cc1NC1CCN(C)C1)C1CCCCC1` (stereo not drawn) [example 144, 3-{4-[cyclohexyl(2-methylpropyl)amino]-3-[(1-methylpyrrolidin-3-yl)amino]phenyl}butanoic acid], for which, in data set [1], the HELA_IDO1_TOX_PXC50 is reported as less than 5. The IC50 in data set [2] is 3160 nM.
In data set [1], `CC(C)CN(c1ccc(C(C)CC(=O)O)cc1Nc1nc2n(n1)CCCC2)C1CCCCC1` (stereo not drawn) [example 150, 3-{4-[cyclohexyl(2-methylpropyl)amino]-3-({5H,6H,7H,8H-[1,2,4]triazolo[1,5-a]pyridin-2-yl}amino)phenyl}butanoic acid] came in with an HELA_IDO1_TOX_PXC50 of less than 5. The IC50 in data set [2] is 3160 nM.
On to `CC(C)CN(CC(C)C)c1ccc(C(C)CC(=O)O)cc1Nc1nc(-c2ccncc2)cs1` (stereo not drawn) [example 130, 3-{4-[bis(2-methylpropyl)amino]-3-{[4-(pyridin-4-yl)-1,3-thiazol-2-yl]amino]phenyl}butanoic acid], for which, in data set [1], the HELA_IDO1_TOX_PXC50 is listed as less than 4.3. For the same compound, the IC50 in data set [2] was 1580 nM.
As for `COCc1ncc(Nc2cc(C(C)CC(=O)O)ccc2N(CC(C)C)CC(C)C)o1` (stereo not drawn) [example 191, 3-{4-[bis(2-methylpropyl)amino]-3-{[2-(methoxymethyl)-1,3-oxazol-5-yl]amino]phenyl}butanoic acid], in data set [1], the HELA_IDO1_TOX_PXC50 is less than 5. Also, in data set [2], the IC50 is 2000 nM.
The matching figures for `CC(C)CN(c1ccc(-c2cccnc2C(=O)O)cc1Nc1nc(Cl)ns1)C1CCOCC1` [example 270, 3-{3-[(3-chloro-1,2,4-thiadiazol-5-yl)amino]-4-[(2-methylpropyl)(oxan-4-yl)amino]phenyl}pyridine-2-carboxylic acid]: less than 5 and 1580 nM.
Regarding `CC(C)CN(c1ccc(C(C)OCC(=O)O)cc1Nc1ccc(C(N)=O)cn1)C1CCCCC1` (stereo not drawn) [example 201, 2-(1-{3-[(5-carbamoylpyridin-2-yl)amino]-4-[cyclohexyl(2-methylpropyl)amino]phenyl}ethoxy)acetic acid], in data set [1], the HELA_IDO1_TOX_PXC50 was less than 5. In data set [2], the IC50 was greater than 10000 nM.
As to `CC(C)CN(CC(C)C)c1ccc(C(C)CC(=O)O)cc1Nc1nc2c(s1)CCCC2` (stereo not drawn) [example 131, 3-{4-[bis(2-methylpropyl)amino]-3-[(4,5,6,7-tetrahydro-1,3-benzothiazol-2-yl)amino]phenyl}butanoic acid], the HELA_IDO1_TOX_PXC50 in data set [1] turned out to be 4.7. Moreover, the IC50 in data set [2] is 631 nM.
The matching figures for `CC(C)CN(CC(C)C)c1ccc(C(C)CC(=O)O)cc1Nc1nnc(C2CC2)o1.O=C(O)C(F)(F)F` (stereo not drawn) [example 126, 3-{4-[bis(2-methylpropyl)amino]-3-[(5-cyclopropyl-1,3,4-oxadiazol-2-yl)amino]phenyl}butanoic acid]: less than 4.3 and 631 nM.
Take `CC(C)CN(CC(C)C)c1ccc(C(C)CC(=O)O)cc1Nc1nncs1` (stereo not drawn) [example 196, 3-{4-[bis(2-methylpropyl)amino]-3-[(1,3,4-thiadiazol-2-yl)amino]phenyl}butanoic acid]: the HELA_IDO1_TOX_PXC50 in data set [1] is listed as less than 5. Moreover, the IC50 in data set [2] was 158 nM.
In turn, `COCc1nnc(Nc2cc([C@H](C)CC(=O)O)ccc2N(CC(C)C)CC(C)C)[nH]1` [example 190, (3R)-3-{4-[bis(2-methylpropyl)amino]-3-{[5-(methoxymethyl)-4H-1,2,4-triazol-3-yl]amino}phenyl}butanoic acid] registered an HELA_IDO1_TOX_PXC50 in data set [1] of less than 5. For the same compound, the IC50 in data set [2] is 79.4 nM.
The matching figures for `CC(C)CN(CC(C)C)c1ccc(C(C)CC(=O)O)cc1Nc1nc(C2CCOCC2)cs1` (stereo not drawn) [example 138, 3-{4-[bis(2-methylpropyl)amino]-3-{[4-(oxan-4-yl)-1,3-thiazol-2-yl]amino}phenyl}butanoic acid]: less than 4.3 and 5010 nM.
In turn, `CC(C)CN(CC(C)C)c1ccc(C(C)CC(=O)O)cc1NCc1noc(C2CC2)n1` (stereo not drawn) [example 147, 3-{4-[bis(2-methylpropyl)amino]-3-{[(5-cyclopropyl-1,2,4-oxadiazol-3-yl)methyl]amino}phenyl} butanoic acid] yielded an HELA_IDO1_TOX_PXC50 in data set [1] of less than 5. Besides, in data set [2], the IC50 was greater than 10000 nM.
`CC(C)CN(c1ccc(-c2cnn(C)c2C(=O)O)cc1Nc1nc2ccccc2o1)C1CCCCC1` [example 178, 4-{3-[(1,3-benzoxazol-2-yl)amino]-4-[cyclohexyl(2-methylpropyl)amino]phenyl}-1-methyl-1H-pyrazole-5-carboxylic acid] gave an HELA_IDO1_TOX_PXC50 in data set [1] of less than 5. The IC50 in data set [2] was 3160 nM.
Taken in the same sequence, the figures for `CC(C)CN(c1ccc(-c2ccccc2C(=O)NS(C)(=O)=O)cc1Nc1nc(C(F)(F)F)ns1)C1CCCCC1` [example 282, 4′-[cyclohexyl(2-methylpropyl)amino]-N-methanesulfonyl-3-′ {[3-(trifluoromethyl)-1,2,4-thiadiazol-5-yl]amino}-[1,1′-biphenyl]-2-carboxamide] were less than 5 and 50.1 nM.
In data set [1], `CC(C)CN(CC(C)C)c1ccc(C(C)CC(=O)O)cc1Nc1ncc(-c2ccccc2)o1` (stereo not drawn) [example 121, 3-{4-[bis(2-methylpropyl)amino]-3-[(5-phenyl-1,3-oxazol-2-yl)amino]phenyl}butanoic acid] yielded an HELA_IDO1_TOX_PXC50 of 4.4. For the same compound, the IC50 in data set [2] is 7940 nM.
Regarding `CC(=O)Nc1nnc(Nc2cc(C(C)CC(=O)O)ccc2N(CC(C)C)CC(C)C)s1` (stereo not drawn) [example 187, 3-{4-[bis(2-methylpropyl)amino]-3-[(5-acetamido-1,3,4-thiadiazol-2-yl)amino]phenyl}butanoic acid], the HELA_IDO1_TOX_PXC50 in data set [1] was less than 5. Moreover, the IC50 in data set [2] was greater than 10000 nM.
